Source: US6921531B2, “Administering bifunctional molecules containing a drug moiety and presenter protein ligand for therapy” (The Board of Trustees of the Leland Stanford Junior …, priority 1998, dated 2005)
Like-named read-outs stand apart in the source and are kept apart here.

Assays:
Fyn SH2 domain = biological target: T1, Fyn SH2 domain (Homo sapiens, UniProt P06241); assay: Competition binding assay of radioactive Fyn SH2 domain to pYEEI beads
T1 construct: The Fyn, Lck and PLC SH2 domains were expressed in bacteria as GST fusion proteins; GST (cleaved yes); made in house; host or cells: bacteria
T1 sequence (P06241 149-246 limits assumed): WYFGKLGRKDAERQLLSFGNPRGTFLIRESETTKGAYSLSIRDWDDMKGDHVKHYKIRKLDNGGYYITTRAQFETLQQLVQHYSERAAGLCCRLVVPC
Text: (§1) The pYEEI peptide was coupled to Affi-Gel 10 beads (Biorad) via its amino-group. The Fyn, Lck and PLC SH2 domains were expressed in bacteria as GST fusion proteins. The linker between the GST protein and the SH2 domain contained a thrombin cleavage site and a protein kinase A (PKA) phosphorylation site. The fusion protein on glutathione beads was radioactively labeled at the PKA phosphorylation site using PKA (Sigma). After extensive washing of the beads, the radioactive SH2 domain was released by cleavage with thrombin (Sigma). In a typical binding assay, 7.5 L of a 1:1 peptide bead slurry were incubated with the radioactive SH2 domain (200 nM) for 2 hours in 100 L of binding buffer (20 mM Tris pH7.2; 150 mM NaCl). In order to separate the radioactive protein bound to the beads, the binding reaction was transfered into a PCR tube (USA Scientific Plastic), whose bottom had been punctured with a 26gauge needle. The PCR tube was placed in a 0.5 mL Eppendorf tube which in turn was placed in a regular 1.5 mL Eppendorf tube. The tubes were spun for 1 second at maximal speed in an Eppendorf centrifuge resulting in the separation of the beads remaining in the PCR tube and the supernatant, which was collected in the 0.5 ml Eppendorf tube. The beads were resuspended in […] PBS and the radioactivity was counted in a liquid scintillation counter after addition of 3 ml scintillation fluid. The radioactivity remaining in the 100 L supernatant was counted in the same way. It was determined that under the conditions described 65% Fyn, 25% PLC and 15%Lck SH2 domain were bound to the beads. By increasing the amount of beads, up to 80% Fyn, 40% PLC and 25% Lck could be bound. These amounts reflect the active fraction of SH2 domains in the different protein preparations.
In order to determine the relative affinity of the SH2 domains for FKpYEEI or SLFpYEEI alone and FKpYEEI or SLFpYEEI bound to FKBP12 and FKBP52, the following competition assay was used. Radioactive SH2 domains were incubated with pYEEI peptide beads and FKpYEEI or SLFpYEEI in the presence or absence of the respective FKBP proteins. FKpYEEI and FKpYEEI/FKBP as well as SLFpYEEI and SLFpYEEI/FKBP compete for binding of the SH2 domains with the peptide beads. The higher the affinity of the FKpYEEI or SLFpYEEI ligand in the supernatant, the less SH2 domain is bound to the peptide beads (FIG. 3).
Using the competition binding assay described above, FKpYEEI was added to peptide beads and the Fyn SH2 domain in the presence of increasing concentrations of FKBP52 (FIG. 4). In this assay, in 100 L binding reactions, radioactively labeled Fyn SH2 domain (200 nM) was incubated with 7.5 L of a 1:1 pYEEI bead slurry. No FKpYEEI, 1.0 M FKpYEEI or 1.0 M FKpYEEI plus increasing concentrations of FKBP52 (0.25-4.0 M) were added. The binding reactions were rotated at room temperature for 2 hours. The supernatant was separated from the beads by spinning the binding reactions in punctured PCR tubes for 1 sec in an Eppendorf centrifuge at maximal speed. The beads were resuspended in 100 1 PBS and the radioactivity bound to the beads was counted in a liquid scintillation vial for 30 sec. The radioactivity bound to the beads in the presence of only the Fyn SH2 domain was plotted as 100% of maximal Fyn SH2 domain binding to pYEEI beads. The radioactivity bound in the presence of FKpYEEI and FKBP52 was calculated as the percentage of maximal Fyn SH2 domain binding. Every binding reaction was done in triplicate. The data points reflect the average of the three binding reactions. The error bars indicate the standard error.
In this assay, in 100 L binding reactions, radioactively labeled Fyn SH2 domain (200 nM) was incubated with 7.5 L of a 1:1 pYEEI bead slurry. […] The binding reactions were rotated at room temperature for 2 hours, centrifuged and analysed as described above. […]

PLC SH2 domain = assay: Competition binding assay of radioactive PLC SH2 domain to pYEEI beads; conditions: FKpYEEI 1.5 M plus FKBP12 2.0 M plus FK506 1.0-5.0 M
Text: as §1, with “By increasing the amount of beads, up to 80% Fyn, 40% PLC and 25% Lck could be bound. These amounts reflect the active fraction of SH2 domains in the different protein preparations.” left out
The binary complex of FKpYEEI and FKBP 12 has the same affinity for the Fyn SH2 domain as free FKpYEEI (see FIG. 7). […] The binding reactions were rotated at room temperature for 2 hours, centrifuged and analysed as described above.
In this assay, in 100 L binding reactions, radioactively labeled PLC SH2 domain (400 nM) was incubated with 7.5 L of a 1:1 pYEEI bead slurry. […] The binding reactions were rotated at room temperature for 2 hours, centrifuged and analysed as described above. […]

alkaline phosphatase = conditions: known inhibitor; cited from earlier work
albumin = albumin (Homo sapiens, UniProt P02768); conditions: known ligand; read-out: IC50 as ligand for albumin; cited from earlier work
Sequence of albumin (P02768 25-609): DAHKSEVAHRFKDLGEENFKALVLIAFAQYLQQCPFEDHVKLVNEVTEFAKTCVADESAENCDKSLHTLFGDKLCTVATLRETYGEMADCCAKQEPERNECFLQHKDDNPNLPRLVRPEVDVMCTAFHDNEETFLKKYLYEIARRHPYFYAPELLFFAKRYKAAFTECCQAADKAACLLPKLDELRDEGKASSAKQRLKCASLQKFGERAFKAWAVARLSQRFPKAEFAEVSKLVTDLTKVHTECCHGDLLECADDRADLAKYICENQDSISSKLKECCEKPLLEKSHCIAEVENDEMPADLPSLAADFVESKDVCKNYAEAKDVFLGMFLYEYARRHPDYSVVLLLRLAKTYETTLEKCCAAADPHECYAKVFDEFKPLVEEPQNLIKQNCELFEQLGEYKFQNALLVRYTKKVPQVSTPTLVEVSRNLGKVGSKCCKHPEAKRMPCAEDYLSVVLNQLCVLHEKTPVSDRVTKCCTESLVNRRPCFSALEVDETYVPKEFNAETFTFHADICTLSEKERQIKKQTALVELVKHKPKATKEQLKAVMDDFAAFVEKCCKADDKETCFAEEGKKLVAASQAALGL

[1] = biological target: T2, alkaline phosphatase (Bovine Milk) (Bos taurus, UniProt P09487); assay: Alkaline phosphatase inhibition, Bovine Milk isoform; format: biochemical
T2 construct: Bovine Milk; from tissue; host or cells: bovine milk
T2 sequence (P09487 18-499): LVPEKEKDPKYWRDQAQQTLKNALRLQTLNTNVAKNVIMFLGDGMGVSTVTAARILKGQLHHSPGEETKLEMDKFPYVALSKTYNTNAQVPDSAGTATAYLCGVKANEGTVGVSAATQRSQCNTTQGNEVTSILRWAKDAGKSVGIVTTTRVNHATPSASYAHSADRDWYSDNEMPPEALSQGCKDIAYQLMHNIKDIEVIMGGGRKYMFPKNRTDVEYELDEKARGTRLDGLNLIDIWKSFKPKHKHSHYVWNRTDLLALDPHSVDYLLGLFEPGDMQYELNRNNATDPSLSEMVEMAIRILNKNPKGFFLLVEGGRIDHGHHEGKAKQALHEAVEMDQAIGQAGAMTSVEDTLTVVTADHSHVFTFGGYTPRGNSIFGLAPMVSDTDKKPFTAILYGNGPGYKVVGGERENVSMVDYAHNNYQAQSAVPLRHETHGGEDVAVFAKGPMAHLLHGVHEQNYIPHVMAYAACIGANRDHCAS
Procedure: (§2) Reactions were conducted in 200 mM diethanolamine buffer, pH 10, with methylumbeliferal phosphate as the substrate. The reaction was monitored by recording fluorescence of the hydrolysis product (excitation at 355 nm, fluorescence at […]), and the first 10% of the reaction was used to determine the rate of the reaction.
(§3) In the presence of 100 μM human serum albumin, compound 1 was seen to be a better inhibitor for four of the enzymes tested relative to the inhibition seen in the absence of albumin.

[2] = biological target: alkaline phosphatase (Dog Intestine) (Canis lupus familiaris, UniProt A0A8C0LCK3); assay: Alkaline phosphatase inhibition, Dog Intestine isoform; format: biochemical
Sequence of alkaline phosphatase (Dog Intestine) (A0A8C0LCK3 23-522): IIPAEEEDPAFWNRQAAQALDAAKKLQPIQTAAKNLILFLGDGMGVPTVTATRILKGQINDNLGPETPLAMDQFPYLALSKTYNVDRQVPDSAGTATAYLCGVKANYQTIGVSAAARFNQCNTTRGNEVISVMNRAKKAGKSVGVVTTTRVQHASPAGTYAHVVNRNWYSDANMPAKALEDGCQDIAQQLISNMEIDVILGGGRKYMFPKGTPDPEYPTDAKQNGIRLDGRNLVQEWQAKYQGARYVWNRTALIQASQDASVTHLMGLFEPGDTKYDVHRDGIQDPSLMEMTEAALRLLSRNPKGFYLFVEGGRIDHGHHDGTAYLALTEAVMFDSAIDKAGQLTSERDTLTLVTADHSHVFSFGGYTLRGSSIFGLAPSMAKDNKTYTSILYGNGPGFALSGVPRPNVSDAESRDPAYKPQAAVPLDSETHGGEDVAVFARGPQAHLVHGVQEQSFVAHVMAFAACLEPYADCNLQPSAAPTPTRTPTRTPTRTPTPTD
Procedure: as §2, §3

[3] = biological target: alkaline phosphatase (Shrimp) (Pandalus borealis, UniProt Q9BHT8); assay: Alkaline phosphatase inhibition, Shrimp isoform; format: biochemical; conditions: Shrimp, pH 10
Sequence of alkaline phosphatase (Shrimp) (Pandalus borealis, UniProt Q9BHT8) (Q9BHT8 entry or part of it): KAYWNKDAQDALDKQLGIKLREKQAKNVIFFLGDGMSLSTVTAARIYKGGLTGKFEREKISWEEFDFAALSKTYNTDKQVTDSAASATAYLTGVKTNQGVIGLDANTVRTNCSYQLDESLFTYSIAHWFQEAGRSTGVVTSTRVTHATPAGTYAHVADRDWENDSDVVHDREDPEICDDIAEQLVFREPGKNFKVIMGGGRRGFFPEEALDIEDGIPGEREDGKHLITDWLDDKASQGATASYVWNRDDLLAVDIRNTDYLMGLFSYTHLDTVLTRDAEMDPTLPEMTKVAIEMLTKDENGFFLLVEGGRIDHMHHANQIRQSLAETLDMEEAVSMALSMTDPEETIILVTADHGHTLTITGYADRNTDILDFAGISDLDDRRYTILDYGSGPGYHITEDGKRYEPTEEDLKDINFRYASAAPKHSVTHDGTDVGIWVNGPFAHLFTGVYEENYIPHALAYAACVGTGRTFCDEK
Procedure: as §2, §3

[4] = system: alkaline phosphatase (Shrimp); assay: Alkaline phosphatase inhibition, Shrimp isoform; format: biochemical; conditions: shrimp isoform; 100 μM human serum albumin vs none
Procedure: as §2, §3

[5] = biological target: alkaline phosphatase (Rabbit Intestine) (Oryctolagus cuniculus, UniProt G1SXE4); assay: Alkaline phosphatase inhibition, Rabbit Intestine isoform; format: biochemical; conditions: 100 μM human serum albumin vs none
Sequence of alkaline phosphatase (Rabbit Intestine) (G1SXE4 25-504): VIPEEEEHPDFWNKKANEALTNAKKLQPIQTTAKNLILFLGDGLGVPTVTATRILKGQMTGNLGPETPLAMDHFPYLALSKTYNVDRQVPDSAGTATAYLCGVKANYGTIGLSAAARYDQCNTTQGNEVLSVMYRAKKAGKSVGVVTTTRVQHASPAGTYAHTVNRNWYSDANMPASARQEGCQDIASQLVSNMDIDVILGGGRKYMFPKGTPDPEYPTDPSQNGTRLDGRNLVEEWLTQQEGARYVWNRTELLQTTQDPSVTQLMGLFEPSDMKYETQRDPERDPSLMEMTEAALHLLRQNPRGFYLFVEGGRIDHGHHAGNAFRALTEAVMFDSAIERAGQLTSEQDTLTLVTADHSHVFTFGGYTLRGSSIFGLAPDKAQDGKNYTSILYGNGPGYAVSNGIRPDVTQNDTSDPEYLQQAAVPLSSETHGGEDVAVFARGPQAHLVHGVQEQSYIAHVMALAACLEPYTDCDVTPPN
Procedure: as §2, §3

[6] = biological target: alkaline phosphatase (Eel Intestine) (Anguilla anguilla, UniProt A0A9D3RXU0); assay: Alkaline phosphatase inhibition, Eel Intestine isoform; format: biochemical; conditions: 100 μM human serum albumin vs none
Sequence of alkaline phosphatase (Eel Intestine) (A0A9D3RXU0 entry or part of it): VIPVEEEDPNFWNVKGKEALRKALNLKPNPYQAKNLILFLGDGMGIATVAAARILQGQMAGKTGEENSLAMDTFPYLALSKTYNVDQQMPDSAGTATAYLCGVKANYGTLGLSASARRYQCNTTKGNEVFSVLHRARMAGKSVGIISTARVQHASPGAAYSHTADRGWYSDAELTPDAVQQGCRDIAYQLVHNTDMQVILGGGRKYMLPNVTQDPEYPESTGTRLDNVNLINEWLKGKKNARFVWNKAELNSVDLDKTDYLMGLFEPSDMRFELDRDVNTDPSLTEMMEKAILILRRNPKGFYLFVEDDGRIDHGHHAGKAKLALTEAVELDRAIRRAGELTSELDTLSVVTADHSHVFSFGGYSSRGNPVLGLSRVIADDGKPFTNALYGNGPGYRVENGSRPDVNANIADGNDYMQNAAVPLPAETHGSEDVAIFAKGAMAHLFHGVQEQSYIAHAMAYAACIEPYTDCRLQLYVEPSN
Procedure: as §2, §3

[7] = biological target: T3, alkaline phosphatase (Porcine Kidney) (Sus scrofa, UniProt A0A4X1W3F8); assay: Alkaline phosphatase inhibition, Porcine Kidney isoform; format: biochemical
T3 sequence (A0A4X1W3F8 1-524): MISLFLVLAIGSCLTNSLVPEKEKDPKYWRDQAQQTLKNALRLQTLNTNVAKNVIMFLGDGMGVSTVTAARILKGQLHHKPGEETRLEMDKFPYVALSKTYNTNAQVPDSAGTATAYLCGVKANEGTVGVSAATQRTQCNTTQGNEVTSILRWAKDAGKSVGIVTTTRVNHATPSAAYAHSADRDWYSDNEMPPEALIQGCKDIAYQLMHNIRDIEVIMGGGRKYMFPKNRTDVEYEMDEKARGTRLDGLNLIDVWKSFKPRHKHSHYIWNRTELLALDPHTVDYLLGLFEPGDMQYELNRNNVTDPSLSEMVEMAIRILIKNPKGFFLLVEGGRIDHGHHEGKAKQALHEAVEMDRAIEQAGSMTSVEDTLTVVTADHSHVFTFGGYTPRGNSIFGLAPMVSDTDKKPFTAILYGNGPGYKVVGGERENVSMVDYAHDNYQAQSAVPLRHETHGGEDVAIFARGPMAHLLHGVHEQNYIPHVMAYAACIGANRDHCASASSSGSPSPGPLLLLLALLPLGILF
Procedure: as §2, §3

[8] = biological target: T4, alkaline phosphatase (Human Placenta) (Homo sapiens, UniProt P05187); assay: Alkaline phosphatase inhibition, Human Placenta isoform; format: biochemical; conditions: for IC50: Human Placenta, pH 10
T4 construct: roughly 2-fold for the eel intestine and human placenta isoforms of the enzyme; from tissue; host or cells: human placenta
T4 sequence (P05187 23-506): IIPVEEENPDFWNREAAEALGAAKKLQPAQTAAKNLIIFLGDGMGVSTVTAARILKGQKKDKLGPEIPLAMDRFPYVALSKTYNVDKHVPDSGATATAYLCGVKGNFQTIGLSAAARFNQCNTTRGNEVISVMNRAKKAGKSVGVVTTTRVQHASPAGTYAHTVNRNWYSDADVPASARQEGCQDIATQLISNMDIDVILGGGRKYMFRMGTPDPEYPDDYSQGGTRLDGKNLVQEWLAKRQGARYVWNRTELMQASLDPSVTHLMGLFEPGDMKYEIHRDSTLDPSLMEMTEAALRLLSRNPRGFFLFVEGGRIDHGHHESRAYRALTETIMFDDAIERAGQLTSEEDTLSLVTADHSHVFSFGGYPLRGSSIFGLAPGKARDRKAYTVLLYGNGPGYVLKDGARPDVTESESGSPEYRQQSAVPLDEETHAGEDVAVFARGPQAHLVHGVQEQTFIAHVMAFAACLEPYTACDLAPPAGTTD
Procedure: as §2, §3

[9] = biological target: alkaline phosphatase (Bacteria) (Escherichia coli, UniProt P00634); assay: Alkaline phosphatase inhibition, Bacteria isoform; format: biochemical
Sequence of alkaline phosphatase (Bacteria) (P00634 22-471): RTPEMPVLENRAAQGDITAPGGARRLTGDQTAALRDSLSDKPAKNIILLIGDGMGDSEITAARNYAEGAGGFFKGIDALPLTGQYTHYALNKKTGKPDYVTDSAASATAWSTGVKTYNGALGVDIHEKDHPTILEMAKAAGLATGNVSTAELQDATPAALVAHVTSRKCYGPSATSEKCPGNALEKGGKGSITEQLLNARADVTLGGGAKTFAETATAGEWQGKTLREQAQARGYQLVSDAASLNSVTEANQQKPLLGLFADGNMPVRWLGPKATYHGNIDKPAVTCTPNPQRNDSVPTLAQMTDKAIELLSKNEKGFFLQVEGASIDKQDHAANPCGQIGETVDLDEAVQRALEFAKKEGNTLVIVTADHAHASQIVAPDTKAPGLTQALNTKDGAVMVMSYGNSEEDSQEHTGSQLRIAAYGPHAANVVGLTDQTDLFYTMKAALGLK
Procedure: as §2, §3

[10] = 100 μM human serum albumin, pH 10, read-out: IC50 (100 μM albumin)
[11] = no albumin, pH 10, read-out: IC50 (no albumin)

In the case of C=CC[C@@H]1/C=C(\C)C[C@H](C)C[C@H](OC)[C@H]2O[C@@](O)(C(=O)C(=O)N3CCCC[C@H]3C(=O)O[C@H](/C(C)=C/[C@@H]3CC[C@@H](O)[C@H](OC)C3)[C@H](C)[C@@H](O)CC1=O)[C@H](C)C[C@@H]2OC [FK506, reference compound], the “Effect of added FK506 on the FKBP52 effect” value (Fyn SH2 domain; FKpYEEI 1.0 M plus FKBP52 2.0 M plus FK506 0.25-15.0 M) is reported as “the affinity enhancing effect of FKBP52 is reversed”, the “Effect of added FK506 on the FKBP12 effect” value (Fyn SH2 domain; SLFpYEEI 1.0 M plus FKBP12 2.0 M plus FK506 1.0-3.0 M) is reported as “reverses the effect of reduced affinity” and the “Effect of added FK506 on the FKBP12 effect” value (PLC SH2 domain) is reported as “the affinity reduction is reversed”.

For CC(C)(S)[C@@H](N)C(=O)O [Penicillamine], the “IC 50 values for a wide variety of alkaline phosphatase isoforms” value (alkaline phosphatase) is given as “in the μM range”.

For Nc1ccc(C(=O)O)c(O)c1 [para-amino salicylic acid], the IC50 (albumin) is given as 5 µM.

CC(C)(S)C(N)C(=O)NCC(=O)Nc1ccc(C(=O)O)c(O)c1 (stereo not drawn) [Compound 1] gave an IC50 [1, 10] of 50 µM, an IC50 [1, 11] of 50 µM and an IC50 ([2]; read-out: IC50 (100 μM albumin), 100 μM human serum albumin, pH 10) of 20 µM. For the same compound, the IC50 ([2]; read-out: IC50 (no albumin), no albumin, pH 10) was 20 µM, the IC50 ([3]; IC50 (100 μM albumin), 100 μM human serum albumin) was 80 µM and the IC50 ([3]; IC50 (no albumin), no albumin) was 3000 µM. For the same compound, the “Decrease of IC50 in the presence of albumin” value (shortened to “Decrease of IC50”) [4] was “roughly 12 fold”, the “Decrease of IC50” value [5] was “roughly 12 fold” and the “Decrease of IC50” value [6] was “roughly 2 fold”. It also gave an IC50 [7, 10] of 50 µM, an IC50 [7, 11] of 50 µM and an IC50 ([8]; 100 μM human serum albumin, read-out: IC50 (100 μM albumin)) of 45 µM. The IC50 ([8]; no albumin, read-out: IC50 (no albumin)) was 300 µM, the “Decrease of IC50” value ([8]; human placenta isoform, 100 μM human serum albumin vs none) was “roughly 2 fold” and the IC50 [9] was 50 µM. It also gave an IC50 ([9]; read-out: IC50 (100 μM albumin), Bacteria, 100 μM human serum albumin, pH 10) of 50 µM.
